The source of these data is patent US4116963A, “3,3,3-Triarylalkyl-4-phenylalkyl-4-hydroxy piperidines and related compounds” (G.D. Searle & Co., priority 1977, dated 1978).

In test [1] the test system is mice. Nature of the test: CECAL (Charcoal Meal Test). Format: in vivo. As to conditions: Mus musculus, po; i.g., 1 hour prior to the charcoal meal; antidiarrheal effect; read-out: Cecal Test (CT) ED50. The procedure: The antidiarrheal effect of the compounds of the present invention are shown by the following test:
CECAL (Charcoal Meal Test)
Mice weighing 18-24 grams and previously fasted for 24 hours are each given orally 0.2 ml of a suspension containing 10% charcoal and 1% methylcellulose. The test compounds are administered intragastrically 1 hour prior to the charcoal meal. 3.5 Hours after administration of the meal the mice are sacrificed by cervical dislocation and the cecum is examined for the presence or absence of charcoal on an all or none basis. Each compound is tested at three dose levels (typically 30, 10, 3 mg/kg) in groups of 6 mice per dose level. Control groups of mice given vehicle only were run concurrently with each test group.

The test system of test [2] is mice. Nature of the test: Mouse Hot Plate Test. Format: in vivo. The settings on record: for ED50: Mus musculus, printed "mg/kg k.g.", hot plate 55± 0.3° C., analgesic effect, read-out: Hot Plate (HP) ED50; for Relative Constipation Specificity HP/CT: ratio of Hot Plate ED50 to Cecal Test ED50. How it is done: The assessment of the analgesic effect of the instant compounds was conducted in the mouse hot plate and tail clip tests.
A mouse (adult male weighing 18-25 grams) is placed in a restraining cylinder on a hot plate with the temperature controlled at 55± 0.3° C. The reaction time of the mouse to lick a foot or jump is measured at 60, 40 and 20 minutes before and 30, 60, 90, and 120 minutes after administration of the test compound. The "normal" reaction time is measured as the median of the three pretreatment reaction times. A positive response consists of a reaction time greater than twice the normal time at any of the post treatment times. A dose of the test compound is considered active when 50 percent or more of the animals used show a positive response.
(Hot-plate and tail-flick tests time the reaction to a heat stimulus.)

Test [3] concerns mice. Nature of the test: Tail Clip Test. The test is classed as in vivo, mouse. As to conditions: for ED50: Mus musculus, po, i.g., analgesic effect, read-out: Tail Clip (TC) ED50; for Relative Constipation Specificity TC/CT: ratio of Tail Clip ED50 to Cecal Test ED50.

In the case of `OC1(c2ccccc2)CCN(CCC(c2ccccc2)(c2ccccc2)c2ccccc2)CC1` [I, 1-(3,3,3-triphenylpropyl)-4-hydroxy-4-phenylpiperidine], the ED50 (in general, the dose that gives a 50% effect, or the effect in half of the subjects) with mice [1] is 0.39 mg/kg; in the test on mice [2], ~3 mg/kg; in the test with mice [3], ~3 mg/kg. In addition, in the test with mice [2], the “Relative Constipation Specificity HP/CT” value came out at 7.6. The “Relative Constipation Specificity TC/CT” value in the test on mice [3] was found to be 7.6.

On to `OC1(Cc2ccccc2)CCN(CCC(c2ccccc2)(c2ccccc2)c2ccccc2)CC1` [II, 1-(3,3,3-triphenylpropyl)-4-hydroxy-4-benzylpiperidine], for which the ED50 in the test on mice [1] worked out at 0.6 mg/kg. Besides, in the test on mice [2], the ED50 was ~400 mg/kg and the “Relative Constipation Specificity HP/CT” value is listed as 667. Further, in the test on mice [3], the ED50 was ~400 mg/kg and the “Relative Constipation Specificity TC/CT” value is reported as 667.
